Measured values: ChEMBL document CHEMBL2331534, “Design, synthesis and biological evaluation of novel hybrid compounds of imidazole scaffold-based 2-benzylbenzofuran as potent anticancer agents” (Eur J Med Chem, 2013)

Assays:
SMMC-7721 [1] = assay: Cytotoxicity against human SMMC7721 cells assessed as growth inhibition after 48 hrs by MTT assay; assay type: functional, cell-based; conditions: SMMC-7721, 48 h
MCF7 [2] = assay: Cytotoxicity against human MCF7 cells assessed as growth inhibition after 48 hrs by MTT assay; assay type: functional, cell-based; conditions: MCF7, 48 h
SW480 = assay: Cytotoxicity against human SW480 cells assessed as growth inhibition after 48 hrs by MTT assay; assay type: functional, cell-based; conditions: SW480, 48 h
HL-60 = assay: Cytotoxicity against human HL60 cells assessed as growth inhibition after 48 hrs by MTT assay; assay type: functional, cell-based; conditions: HL-60, 48 h
A549 = assay: Cytotoxicity against human A549 cells assessed as growth inhibition after 48 hrs by MTT assay; assay type: functional, cell-based; conditions: A549, 48 h
MCF7 [3] = assay: Ratio of compound IC50 to DDP IC50 for growth inhibition of human MCF7 cells; assay type: functional
SMMC-7721 [4] = assay: Ratio of compound IC50 to DDP IC50 for growth inhibition of human SMMC7721 cells; assay type: functional

SMILES | IC50 (SMMC-7721 [1]) | IC50 (MCF7 [2]) | IC50 (SW480) | IC50 (HL-60) | IC50 (A549) | Ratio IC50 (MCF7 [3]) | Ratio IC50 (SMMC-7721 [4])
CCc1nccn1C(c1ccccc1)c1cc2ccccc2o1 (configuration not stated) | > 40 µM | > 40 µM | > 40 µM | > 40 µM | > 40 µM | – | –
CCCC[n+]1cn(C(c2ccccc2)c2cc3ccccc3o2)c2ccccc21 (configuration not stated) | 7.03 µM | 15.4 µM | 29.3 µM | 2.87 µM | 12.3 µM | – | –
O=[N+]([O-])c1ccc(C[n+]2ccn(C(c3ccccc3)c3cc4ccccc4o3)c2)cc1 (configuration not stated) | > 40 µM | > 40 µM | > 40 µM | > 40 µM | > 40 µM | – | –
C=CC[n+]1cn(C(c2ccccc2)c2cc3ccccc3o2)c2ccccc21 (configuration not stated) | > 40 µM | > 40 µM | > 40 µM | > 40 µM | > 40 µM | – | –
O=C(C[n+]1ccn(C(c2ccccc2)c2cc3ccccc3o2)c1)c1ccc(O)cc1 (configuration not stated) | > 40 µM | > 40 µM | > 40 µM | > 40 µM | > 40 µM | – | –
c1ccc(C(c2cc3ccccc3o2)n2ccnc2)cc1 (configuration not stated) | > 40 µM | > 40 µM | > 40 µM | > 40 µM | > 40 µM | – | –
O=C(C[n+]1ccn(C(c2ccccc2)c2cc3ccccc3o2)c1)c1ccc(F)cc1 (configuration not stated) | > 40 µM | > 40 µM | > 40 µM | > 40 µM | > 40 µM | – | –
Cc1n(C(c2ccccc2)c2cc3ccccc3o2)cc[n+]1Cc1ccccc1 (configuration not stated) | > 40 µM | > 40 µM | > 40 µM | > 40 µM | > 40 µM | – | –
CCc1n(C(c2ccccc2)c2cc3ccccc3o2)cc[n+]1CC(=O)c1ccc(F)cc1 (configuration not stated) | 10.9 µM | 13.8 µM | > 40 µM | 2.38 µM | 7.36 µM | – | –
O=C(C[n+]1ccn(C(c2ccccc2)c2cc3ccccc3o2)c1)c1ccc2ccccc2c1 (configuration not stated) | 3.47 µM | 3.12 µM | 14.2 µM | 1.93 µM | 7.77 µM | – | –
C=CC[n+]1ccn(C(c2ccccc2)c2cc3ccccc3o2)c1CC (configuration not stated) | > 40 µM | > 40 µM | > 40 µM | > 40 µM | > 40 µM | – | –
c1ccc(C(c2cc3ccccc3o2)n2cnc3ccccc32)cc1 (configuration not stated) | > 40 µM | > 40 µM | > 40 µM | > 40 µM | > 40 µM | – | –
CCc1n(C(c2ccccc2)c2cc3ccccc3o2)cc[n+]1Cc1ccccc1 (configuration not stated) | 7.14 µM | 5.24 µM | 3.75 µM | 2.06 µM | 6.52 µM | – | –
O=C(C[n+]1cn(C(c2ccccc2)c2cc3ccccc3o2)c2ccccc21)c1ccc(Br)cc1 (configuration not stated) | 3.99 µM | 3.35 µM | 3.75 µM | 2.68 µM | 4.76 µM | – | –
CS(=O)(=O)OC(c1ccccc1)c1cc2ccccc2o1 (configuration not stated) | > 40 µM | > 40 µM | > 40 µM | > 40 µM | > 40 µM | – | –
Cc1nccn1C(c1ccccc1)c1cc2ccccc2o1 (configuration not stated) | > 40 µM | > 40 µM | > 40 µM | > 40 µM | > 40 µM | – | –
C=CC[n+]1ccn(C(c2ccccc2)c2cc3ccccc3o2)c1 (configuration not stated) | > 40 µM | > 40 µM | > 40 µM | > 40 µM | > 40 µM | – | –
CCCC[n+]1ccn(C(c2ccccc2)c2cc3ccccc3o2)c1CC (configuration not stated) | > 40 µM | > 40 µM | > 40 µM | > 40 µM | > 40 µM | – | –
COc1ccc(C(=O)C[n+]2ccn(C(c3ccccc3)c3cc4ccccc4o3)c2)cc1 (configuration not stated) | 8.47 µM | 16.1 µM | 15.4 µM | 2.99 µM | 14.6 µM | – | –
Cc1n(C(c2ccccc2)c2cc3ccccc3o2)cc[n+]1CC(=O)c1ccc(Br)cc1 (configuration not stated) | 11.1 µM | 15.2 µM | 14.5 µM | 3.3 µM | 26.1 µM | – | –
Cc1n(C(c2ccccc2)c2cc3ccccc3o2)cc[n+]1CC(=O)c1ccc2ccccc2c1 (configuration not stated) | 4.29 µM | 2.24 µM | 4.48 µM | 1.85 µM | 8.57 µM | – | –
Cc1n(C(c2ccccc2)c2cc3ccccc3o2)cc[n+]1CC(=O)c1ccc(O)cc1 (configuration not stated) | > 40 µM | > 40 µM | > 40 µM | > 40 µM | > 40 µM | – | –

SMILES | IC50 (SMMC-7721 [1]) | IC50 (MCF7 [2]) | IC50 (SW480) | IC50 (HL-60) | IC50 (A549) | Ratio IC50 (MCF7 [3]) | Ratio IC50 (SMMC-7721 [4])
CCc1n(C(c2ccccc2)c2cc3ccccc3o2)cc[n+]1CC(=O)c1ccc2ccccc2c1 (configuration not stated) | 4.48 µM | 4.2 µM | 16.4 µM | 1.86 µM | 3.23 µM | – | –
CCCC[n+]1ccn(C(c2ccccc2)c2cc3ccccc3o2)c1C (configuration not stated) | > 40 µM | > 40 µM | > 40 µM | > 40 µM | > 40 µM | – | –
O=C(C[n+]1cn(C(c2ccccc2)c2cc3ccccc3o2)c2ccccc21)c1ccc(O)cc1 (configuration not stated) | > 40 µM | > 40 µM | > 40 µM | > 40 µM | > 40 µM | – | –
Cc1n(C(c2ccccc2)c2cc3ccccc3o2)cc[n+]1CC(=O)c1ccc(F)cc1 (configuration not stated) | 14.5 µM | 10.7 µM | 12.7 µM | 4.7 µM | 21.7 µM | – | –
O=C(C[n+]1ccn(C(c2ccccc2)c2cc3ccccc3o2)c1)c1ccccc1 (configuration not stated) | > 40 µM | > 40 µM | > 40 µM | > 40 µM | > 40 µM | – | –
O=[N+]([O-])c1ccc(C[n+]2cn(C(c3ccccc3)c3cc4ccccc4o3)c3ccccc32)cc1 (configuration not stated) | 11.5 µM | 16.4 µM | 14 µM | 11 µM | > 40 µM | – | –
CCc1n(C(c2ccccc2)c2cc3ccccc3o2)cc[n+]1CC(=O)c1ccc(Br)cc1 (configuration not stated) | 6.14 µM | 9.5 µM | 15.5 µM | 2.94 µM | 14.1 µM | – | –
C=CC[n+]1ccn(C(c2ccccc2)c2cc3ccccc3o2)c1C (configuration not stated) | > 40 µM | > 40 µM | > 40 µM | > 40 µM | > 40 µM | – | –
COc1ccc(C(=O)C[n+]2cn(C(c3ccccc3)c3cc4ccccc4o3)c3ccccc32)cc1.[Br-] (configuration not stated) | 3.09 µM | 2.29 µM | 3.55 µM | 1.02 µM | 3.57 µM | 4.6 | –
c1ccc(C[n+]2ccn(C(c3ccccc3)c3cc4ccccc4o3)c2)cc1 (configuration not stated) | > 40 µM | > 40 µM | > 40 µM | > 40 µM | > 40 µM | – | –
O=C(C[n+]1cn(C(c2ccccc2)c2cc3ccccc3o2)c2ccccc21)c1ccccc1 (configuration not stated) | 5.34 µM | 9.59 µM | 15.5 µM | 2.69 µM | 14.4 µM | – | –
O=C(C[n+]1cn(C(c2ccccc2)c2cc3ccccc3o2)c2ccccc21)c1ccc(F)cc1 (configuration not stated) | 3.98 µM | 12 µM | 13.6 µM | 2.1 µM | 9.15 µM | – | –
Cc1n(C(c2ccccc2)c2cc3ccccc3o2)cc[n+]1CC(=O)c1ccccc1 (configuration not stated) | 14.8 µM | 10.2 µM | > 40 µM | 3.17 µM | 18.8 µM | – | –
O=C(C[n+]1cn(C(c2ccccc2)c2cc3ccccc3o2)c2ccccc21)c1ccc2ccccc2c1.[Br-] (configuration not stated) | 2.35 µM | 3.13 µM | 3.18 µM | 1.12 µM | 3.43 µM | – | 6.3
O=C(C[n+]1ccn(C(c2ccccc2)c2cc3ccccc3o2)c1)c1ccc(Br)cc1 (configuration not stated) | 5.5 µM | 12 µM | 15.5 µM | 2.64 µM | 15.5 µM | – | –
CCCC[n+]1ccn(C(c2ccccc2)c2cc3ccccc3o2)c1 (configuration not stated) | > 40 µM | > 40 µM | > 40 µM | > 40 µM | > 40 µM | – | –
c1ccc(C[n+]2cn(C(c3ccccc3)c3cc4ccccc4o3)c3ccccc32)cc1 (configuration not stated) | 3.63 µM | 9.16 µM | 6.31 µM | 1.05 µM | 6.92 µM | – | –
CCc1n(C(c2ccccc2)c2cc3ccccc3o2)cc[n+]1CC(=O)c1ccc(O)cc1 (configuration not stated) | > 40 µM | > 40 µM | > 40 µM | > 40 µM | > 40 µM | – | –
CCc1n(C(c2ccccc2)c2cc3ccccc3o2)cc[n+]1CC(=O)c1ccccc1 (configuration not stated) | 10.6 µM | 14 µM | 19.1 µM | 2.64 µM | 13.7 µM | – | –
CCc1n(C(c2ccccc2)c2cc3ccccc3o2)cc[n+]1CC(=O)c1ccc(OC)cc1 (configuration not stated) | 7.07 µM | 9.5 µM | 17.1 µM | 2.17 µM | 5.43 µM | – | –
COc1ccc(C(=O)C[n+]2ccn(C(c3ccccc3)c3cc4ccccc4o3)c2C)cc1 (configuration not stated) | 5.29 µM | 9.84 µM | 14.4 µM | 1.65 µM | 8 µM | – | –
